Values belong to the compound of their own block, whether it stands above or below them. Calls of active or inactive are those of the source. The calls are words filed in the database; no cut-off is given here.
Key:
Rattus norvegicus [1] = organism: Rattus norvegicus; assay: The percentage of residual insulin release at 50 uM of compound in the presence of glucose on rat pancreatic beta cells; assay type: functional
Rattus norvegicus [2] = organism: Rattus norvegicus; assay: The effective dose for relaxation was measured on rat aorta rings; assay type: functional; settings: read-out: ED50 (the source's name)
Cavia porcellus [3] = organism: Cavia porcellus; assay: The inhibitory concentration for 50% was measured on guinea pig cardiomyocytes; assay type: functional
[4] = The inhibitory concentration for 50% was measured on the rat insulinoma cell line RIN-m5F; assay type: functional
[5] = target: Sulfonylurea receptor 1, Kir6.2 (Homo sapiens, UniProt Q09428+Q14654); assay: Inhibition of human SUR1/Kir6.2 expressed in CHO cells; assay type: cell-based
[6] = target: T1, Sulfonylurea receptor 2, Kir6.2 (Homo sapiens, UniProt O60706+Q14654); assay: Inhibition of human SUR2A/Kir6.2 expressed in Xenopus oocytes; assay type: cell-based, Oocyte
Rattus norvegicus [7] = organism: Rattus norvegicus; assay: In vitro inhibitory concentration for 50% vasorelaxant effect was measured on rat aorta strips; assay type: functional
[8] = Inhibition of currents and prolonged action potential duration in human atrial myocytes; assay type: functional, Cardiac atrium
[9] = target: T2, Potassium voltage-gated channel subfamily A member 5 (Homo sapiens, UniProt P22460); assay: (§1) Inhibition of voltage-gated potassium channel subunit Kv1.5
[10] = target: T2, Potassium voltage-gated channel subfamily A member 5; assay: The inhibitory concentration for 50% was measured on cation flux
[11] = Inhibition of glyburide binding to K-ATP potassium channel; Inactive
Cavia porcellus [12] = organism: Cavia porcellus; assay: The inhibitory concentration for 50% was measured on guinea pig bladder strips; assay type: functional
[13] = target: T2, Potassium voltage-gated channel subfamily A member 5; assay: as §1; assay type: functional
Rattus norvegicus [14] = organism: Rattus norvegicus; assay: The effective concentration (EC25) was measured for anti-ischemic activity on perfused rat hearts; assay type: functional
Rattus norvegicus [15] = organism: Rattus norvegicus; assay: The inhibitory concentration (IC50) for vasorelaxation on rat aorta; assay type: functional
[16] = EC25 and IC50 Ratio of the compound; assay type: functional; set-up: reference not given here
[17] = In vitro reduction of glutamate release in hippocampal slices; assay type: functional, tissue-based; settings: Rattus norvegicus, Hippocampus
[18] = target: T3, Small conductance calcium-activated potassium channel protein 1 (Homo sapiens, UniProt Q92952); assay: Inhibition of hSK1 calcium activated potassium channel (SKCa channel)
Cavia porcellus [19] = organism: Cavia porcellus; assay: The inhibitory concentration was measured on guinea pig cardiomyocytes; assay type: functional
Rattus norvegicus [20] = organism: Rattus norvegicus; assay: The inhibitory concentration was measured on the rat insulinoma cell line RIN-m5F; assay type: functional
Rattus norvegicus [21] = organism: Rattus norvegicus; assay: Antagonistic activity in the rat thoracic aorta; assay type: functional
Cavia porcellus [22] = organism: Cavia porcellus; assay: Relaxation of guinea pig bladder strips when contracted with 20 mM KCl; assay type: functional
[23] = target: Voltage-gated potassium channel, IKs; KCNQ1(Kv7.1)/KCNE1(MinK) (Homo sapiens, UniProt P15382+P51787); assay: Inhibition of Iks current KvLQT1 potassium channel; assay type: protein-complex assay
[24] = target: Gardos channel, KCNN4/IK1 (Homo sapiens); assay: Selectivity for gardos channel; (Gardos channel vs 2000 nM for the cardiac IKs channel).)
Rattus norvegicus [25] = organism: Rattus norvegicus; assay: The effective concentration was measured on rat aorta strips; assay type: functional
Rattus norvegicus [26] = organism: Rattus norvegicus; assay: The inhibitory concentration for 50% was measured on rat aorta strips; assay type: functional
[27] = target: T1, Sulfonylurea receptor 2, Kir6.2; assay: (§2) Inhibition of SUR2B/Kir6.2; assay type: protein-complex assay
[28] = target: T1, Sulfonylurea receptor 2, Kir6.2; assay: as §2; assay type: protein-complex assay, Rattus norvegicus
[29] = Inhibition of glyburide binding to K-ATP potassium channel
[30] = Inhibition of Kir6.1/SUR1 potassium channel K-ATP; set-up: species or system Homo sapiens
Cavia porcellus [31] = organism: Cavia porcellus; assay: The inhibitory concentration of compound on guinea pig bladder strips; assay type: functional
Cavia porcellus [32] = organism: Cavia porcellus; assay: The inhibitory concentration of compound on guinea pig portal vein; assay type: functional
Cavia porcellus [33] = organism: Cavia porcellus; assay: The effective dose to inhibit 20% was measured on guinea pig; assay type: functional
Cavia porcellus [34] = organism: Cavia porcellus; assay: The effective dose to inhibit 50% was measured on guinea pig; assay type: functional
Rattus norvegicus [35] = organism: Rattus norvegicus; assay: Antagonistic activity (pKb) was measured in the rat thoracic aorta; assay type: functional
[36] = target: T3, Small conductance calcium-activated potassium channel protein 1; assay: Inhibition of hSK1 calcium activated potassium channel (SKCa channel); Range is 1-2

T2 sequence (P22460 whole entry): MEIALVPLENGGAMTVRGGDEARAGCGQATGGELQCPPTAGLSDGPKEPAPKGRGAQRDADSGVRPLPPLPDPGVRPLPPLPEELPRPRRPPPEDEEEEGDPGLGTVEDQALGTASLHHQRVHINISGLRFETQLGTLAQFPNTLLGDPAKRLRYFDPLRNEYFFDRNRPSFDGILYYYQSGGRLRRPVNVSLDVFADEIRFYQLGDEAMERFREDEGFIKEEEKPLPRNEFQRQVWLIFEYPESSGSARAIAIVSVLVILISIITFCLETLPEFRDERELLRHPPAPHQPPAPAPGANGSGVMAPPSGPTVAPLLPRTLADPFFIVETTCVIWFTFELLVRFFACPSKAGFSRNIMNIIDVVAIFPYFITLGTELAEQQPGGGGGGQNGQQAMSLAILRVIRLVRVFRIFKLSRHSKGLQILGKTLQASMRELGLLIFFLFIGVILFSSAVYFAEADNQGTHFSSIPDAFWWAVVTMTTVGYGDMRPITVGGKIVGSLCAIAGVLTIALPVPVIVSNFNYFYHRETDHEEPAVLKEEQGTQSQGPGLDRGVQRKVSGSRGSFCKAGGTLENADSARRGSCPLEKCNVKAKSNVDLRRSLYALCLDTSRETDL
T1 sequence (Q14654 whole entry): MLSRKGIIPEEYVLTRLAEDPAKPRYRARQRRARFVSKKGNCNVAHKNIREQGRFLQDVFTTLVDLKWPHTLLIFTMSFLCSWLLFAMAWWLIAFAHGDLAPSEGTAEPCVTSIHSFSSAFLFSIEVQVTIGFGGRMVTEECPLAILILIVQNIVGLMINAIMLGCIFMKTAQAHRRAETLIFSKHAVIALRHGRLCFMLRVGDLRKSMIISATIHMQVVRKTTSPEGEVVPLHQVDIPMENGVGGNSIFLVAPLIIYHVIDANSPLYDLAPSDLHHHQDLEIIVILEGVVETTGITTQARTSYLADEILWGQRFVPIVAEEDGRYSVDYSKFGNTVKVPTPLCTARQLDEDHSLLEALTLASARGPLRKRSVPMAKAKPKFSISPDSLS
T1 sequence (O60706 whole entry): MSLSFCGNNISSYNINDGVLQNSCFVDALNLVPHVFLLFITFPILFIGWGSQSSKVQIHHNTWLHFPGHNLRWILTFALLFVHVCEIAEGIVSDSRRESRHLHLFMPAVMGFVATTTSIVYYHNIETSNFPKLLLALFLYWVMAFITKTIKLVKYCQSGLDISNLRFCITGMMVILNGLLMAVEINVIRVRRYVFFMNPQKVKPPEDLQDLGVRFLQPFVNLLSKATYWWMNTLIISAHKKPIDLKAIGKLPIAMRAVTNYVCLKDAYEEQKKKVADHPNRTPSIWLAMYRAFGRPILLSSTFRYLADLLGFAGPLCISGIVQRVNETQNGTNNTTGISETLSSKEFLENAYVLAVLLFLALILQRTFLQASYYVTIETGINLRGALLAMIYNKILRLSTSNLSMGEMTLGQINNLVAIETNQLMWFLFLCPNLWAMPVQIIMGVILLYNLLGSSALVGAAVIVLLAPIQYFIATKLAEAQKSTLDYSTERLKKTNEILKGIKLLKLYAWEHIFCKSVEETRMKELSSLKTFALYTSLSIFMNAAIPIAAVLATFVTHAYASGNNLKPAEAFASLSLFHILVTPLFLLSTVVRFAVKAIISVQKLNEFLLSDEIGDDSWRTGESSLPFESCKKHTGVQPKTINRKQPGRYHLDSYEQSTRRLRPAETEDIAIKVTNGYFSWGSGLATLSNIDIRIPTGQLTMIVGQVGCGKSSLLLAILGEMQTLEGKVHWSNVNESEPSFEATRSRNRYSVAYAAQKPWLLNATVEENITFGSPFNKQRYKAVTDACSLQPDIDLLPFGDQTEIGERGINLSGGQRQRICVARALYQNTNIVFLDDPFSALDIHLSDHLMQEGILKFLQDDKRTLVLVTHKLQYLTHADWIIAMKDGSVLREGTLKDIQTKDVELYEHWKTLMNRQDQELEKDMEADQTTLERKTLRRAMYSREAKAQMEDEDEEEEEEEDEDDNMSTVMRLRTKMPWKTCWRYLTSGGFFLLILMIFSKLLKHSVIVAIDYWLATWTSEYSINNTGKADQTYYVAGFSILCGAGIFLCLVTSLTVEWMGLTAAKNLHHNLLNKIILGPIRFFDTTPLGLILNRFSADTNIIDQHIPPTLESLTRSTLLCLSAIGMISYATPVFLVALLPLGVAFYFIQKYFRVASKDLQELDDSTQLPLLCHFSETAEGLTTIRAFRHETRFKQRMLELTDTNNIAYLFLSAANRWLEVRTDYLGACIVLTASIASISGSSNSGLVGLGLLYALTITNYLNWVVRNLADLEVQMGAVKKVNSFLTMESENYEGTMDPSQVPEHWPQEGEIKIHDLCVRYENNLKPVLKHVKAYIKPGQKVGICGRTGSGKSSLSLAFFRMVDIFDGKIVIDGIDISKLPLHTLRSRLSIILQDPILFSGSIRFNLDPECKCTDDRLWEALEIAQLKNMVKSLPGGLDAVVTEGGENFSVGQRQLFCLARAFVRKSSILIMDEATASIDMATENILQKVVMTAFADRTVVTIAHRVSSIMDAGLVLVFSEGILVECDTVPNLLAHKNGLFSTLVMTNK
T3 sequence (Q92952 whole entry): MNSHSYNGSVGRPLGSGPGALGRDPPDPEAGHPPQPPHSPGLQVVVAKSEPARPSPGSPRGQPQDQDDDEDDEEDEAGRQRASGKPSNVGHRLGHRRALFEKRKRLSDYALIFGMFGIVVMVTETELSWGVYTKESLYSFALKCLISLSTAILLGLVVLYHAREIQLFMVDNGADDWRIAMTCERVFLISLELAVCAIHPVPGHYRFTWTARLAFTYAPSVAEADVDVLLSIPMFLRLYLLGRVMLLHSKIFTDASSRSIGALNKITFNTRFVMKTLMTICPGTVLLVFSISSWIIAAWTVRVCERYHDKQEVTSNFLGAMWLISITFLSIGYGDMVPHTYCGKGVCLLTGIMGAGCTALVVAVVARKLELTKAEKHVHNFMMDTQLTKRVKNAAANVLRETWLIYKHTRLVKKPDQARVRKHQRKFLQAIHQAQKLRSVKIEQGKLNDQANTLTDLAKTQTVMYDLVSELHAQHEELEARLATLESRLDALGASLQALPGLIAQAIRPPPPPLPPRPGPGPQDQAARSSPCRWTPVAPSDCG
Sequence of Sulfonylurea receptor 1, Kir6.2 (Q14654 whole entry): as the sequence (Q14654 whole entry) above
Sequence of Sulfonylurea receptor 1, Kir6.2 (Q09428 whole entry): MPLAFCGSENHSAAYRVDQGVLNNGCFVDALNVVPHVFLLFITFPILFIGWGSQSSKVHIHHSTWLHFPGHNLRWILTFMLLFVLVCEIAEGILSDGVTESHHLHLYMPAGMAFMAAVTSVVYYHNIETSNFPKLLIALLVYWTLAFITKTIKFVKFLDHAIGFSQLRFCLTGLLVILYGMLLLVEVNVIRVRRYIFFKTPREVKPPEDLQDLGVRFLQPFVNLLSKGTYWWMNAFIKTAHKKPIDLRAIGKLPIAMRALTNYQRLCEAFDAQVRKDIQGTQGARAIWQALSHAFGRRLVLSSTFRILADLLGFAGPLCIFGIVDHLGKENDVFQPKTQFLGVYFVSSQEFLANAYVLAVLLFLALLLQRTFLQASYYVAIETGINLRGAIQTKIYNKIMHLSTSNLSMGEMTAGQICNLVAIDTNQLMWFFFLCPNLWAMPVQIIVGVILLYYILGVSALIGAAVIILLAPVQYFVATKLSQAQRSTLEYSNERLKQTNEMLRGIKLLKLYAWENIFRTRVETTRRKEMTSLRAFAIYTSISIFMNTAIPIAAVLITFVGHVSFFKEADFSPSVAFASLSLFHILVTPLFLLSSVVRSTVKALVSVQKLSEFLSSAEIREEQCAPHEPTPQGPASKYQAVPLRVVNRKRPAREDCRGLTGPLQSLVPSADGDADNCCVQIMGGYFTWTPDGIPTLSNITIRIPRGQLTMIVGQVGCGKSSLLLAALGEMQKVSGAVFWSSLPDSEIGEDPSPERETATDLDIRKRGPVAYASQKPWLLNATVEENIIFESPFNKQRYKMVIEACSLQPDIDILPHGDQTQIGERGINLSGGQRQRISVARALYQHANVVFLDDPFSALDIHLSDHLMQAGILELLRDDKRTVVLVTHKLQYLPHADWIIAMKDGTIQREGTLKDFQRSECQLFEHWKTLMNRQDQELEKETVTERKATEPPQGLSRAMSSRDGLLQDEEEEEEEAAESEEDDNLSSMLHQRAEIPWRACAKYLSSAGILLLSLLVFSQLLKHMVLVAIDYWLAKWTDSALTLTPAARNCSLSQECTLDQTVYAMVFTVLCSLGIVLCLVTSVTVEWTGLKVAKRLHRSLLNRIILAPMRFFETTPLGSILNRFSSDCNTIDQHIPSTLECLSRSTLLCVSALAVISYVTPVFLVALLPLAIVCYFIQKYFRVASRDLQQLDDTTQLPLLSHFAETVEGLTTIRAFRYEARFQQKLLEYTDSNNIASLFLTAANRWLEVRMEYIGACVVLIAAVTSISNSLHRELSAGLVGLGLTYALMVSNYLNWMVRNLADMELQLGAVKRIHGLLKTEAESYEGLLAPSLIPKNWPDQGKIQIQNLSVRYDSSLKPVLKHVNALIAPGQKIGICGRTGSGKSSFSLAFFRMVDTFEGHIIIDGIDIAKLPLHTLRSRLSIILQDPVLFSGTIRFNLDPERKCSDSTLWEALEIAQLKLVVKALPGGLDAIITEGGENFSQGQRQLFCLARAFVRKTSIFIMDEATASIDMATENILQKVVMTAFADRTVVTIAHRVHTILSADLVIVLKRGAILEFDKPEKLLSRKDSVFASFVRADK

SMILES: CC1=Nc2ccc(Cl)cc2S(=O)(=O)N1 [DIAZOXIDE]
Insulin release (Rattus norvegicus [1]): 28.8%
EC50 (Rattus norvegicus [2]): 19300 nM

SMILES: CNC(=S)NS(=O)(=O)c1cc(CCNC(=O)c2cc(Cl)ccc2OC)ccc1OC [CLAMIKALANT]
IC50 (Cavia porcellus [3]): 800 nM
IC50 [4]: 7500 nM
IC50 [5]: 8200 nM
IC50 [6]: 4300 nM

SMILES: CC(C)(C)O/N=C(\c1cc(Br)c(F)cc1O)c1c(O)ccc[n+]1[O-]
IC50 (Rattus norvegicus [7]): 280 nM

SMILES: CC(NC1=NS(=O)(=O)c2cc(Cl)cnc2N1)C(C)(C)C (stereo not drawn)
Insulin release (Rattus norvegicus [1]): 41.5%
EC50 (Rattus norvegicus [2]): 2300 nM

SMILES: O=C1NCCN1CCN1CCC(c2cn(-c3ccc(F)cc3)c3ccc(Cl)cc23)CC1 [SERTINDOLE]
IC50 [13]: 2000 nM

SMILES: CC1(C)Oc2ccc(C#N)cc2[C@H](N2CCCC2=O)[C@H]1O [(-)-CROMAKALIM]
EC25 (Rattus norvegicus [14]): 8900 nM
IC50 (Rattus norvegicus [15]): 32 nM
Ratio [16]: 278

SMILES: COc1ccc(Cl)cc1[C@]1(F)C(=O)Nc2cc(C(F)(F)F)ccc21 [FLINDOKALNER]
IC50 [17]: 352 nM

SMILES: c1cc2cc(c1)C[n+]1ccc(c3ccccc31)NCc1ccc(cc1)CNc1cc[n+](c3ccccc13)C2
IC50 [18]: 3 nM

SMILES: C=CCN(C1=NCCN1)c1c(Cl)cccc1Cl [ALINIDINE]
pKb (Rattus norvegicus [21]): 5.5

SMILES: C1CCC(/N=C(\NC23CC4CC(CC(C4)C2)C3)N2CCOCC2)CC1
IC50 [30]: 32000 nM

SMILES: N#Cc1cccc(C2C3=C(CCCC3=O)NC3=C2C(=O)CCC3)c1
IC50 (Cavia porcellus [31]): 4200 nM
IC50 (Cavia porcellus [32]): 750 nM

SMILES: CC1(C)Oc2ccc(C#N)cc2[C@@H](/N=C(\NC#N)Nc2ccc(Cl)cc2)[C@@H]1O
EC25 (Rattus norvegicus [14]): 2500 nM
Ratio [16]: 1.4

SMILES: Cc1cc(-c2ccc3c(c2)[C@@H](NC(=O)c2cccnc2)[C@H](O)C(C)(C)O3)ccn1
ED20 (Cavia porcellus [33]): 100 µg/kg
ED50 (Cavia porcellus [34]): 0.08 µg/kg

SMILES: Fc1ccc(CN(C2=NCCN2)c2c(Cl)cccc2Cl)cc1
pKb (Rattus norvegicus [35]): 7.1

SMILES: CC(C)CN(CC(C)C)S(=O)(=O)c1ccc2c(c1)[C@@H](/N=C(\NC#N)Nc1ccc(Cl)cc1)[C@H](O)C(C)(C)O2
EC25 (Rattus norvegicus [14]): 40 nM
Ratio [16]: < 0.004

SMILES: c1ccc2c(c1)c1cc[n+]2CCCCC[n+]2ccc(c3ccccc32)NCCCCCN1
IC50 [36]: 1 nM

The next lines start with results.

EC50 (Rattus norvegicus [2]): 154000 nM
SMILES: CC(NC1=NS(=O)(=O)c2cnccc2N1)C(C)(C)C (stereo not drawn)
Insulin release (Rattus norvegicus [1]): 7.1%

IC50 [9]: 100 nM
SMILES: CCc1ccc(S(=O)(=O)N[C@@H]2c3cc(NC(=O)c4cccc(OC)c4)ccc3C[C@H]2O)cc1
Inhibition [8]: >50%

IC50 [10]: ~2900 nM
IC50 [9]: ~50 nM
SMILES: CCCCc1ccc(S(=O)(=O)N[C@@H]2c3cc(NC(=O)c4cccc(OC)c4)ccc3CC[C@H]2O)cc1

NA [11]: inactive
SMILES: C[C@@H](N/C(=N/C#N)Nc1cccnc1)c1ccccc1

IC50 (Cavia porcellus [12]): 2100 nM
SMILES: CC(O)(C(=O)Nc1cccc2c1C(=O)c1sccc1CO2)C(F)(F)F (stereo not drawn)

IC50 (Rattus norvegicus [15]): > 30000 nM
SMILES: CC1(C)Oc2ccc(C#N)cc2[C@H](N(Cc2ncc[nH]2)c2ccc(Cl)cc2)[C@H]1O [BMS-191095]
EC25 (Rattus norvegicus [14]): 1400 nM
Ratio [16]: < 0.05

IC50 (Rattus norvegicus [20]): 1.6 nM
IC50 [6]: 220 nM
SMILES: COc1ccc(Cl)cc1C(=O)NCCc1ccc(S(=O)(=O)NC(=O)NC2CCCCC2)cc1 [GLYBURIDE]
IC50 (Cavia porcellus [19]): 8 nM

NA [11]: inactive
SMILES: CC[C@@H](N/C(=N/C#N)Nc1cccnc1)c1ccccc1

IC50 (Cavia porcellus [22]): 540 nM
SMILES: Cc1c(-c2ccccc2F)[nH]c(N)c1C#N

IC50 [23]: 2000 nM
IC50 [24]: 9 nM
SMILES: NC(=O)C(c1ccccc1)(c1ccc(F)cc1)c1ccccc1F (stereo not drawn)

EC50 (Rattus norvegicus [25]): 5300 nM
IC50 (Rattus norvegicus [26]): 12000 nM
Kd [27]: 8500 nM
Kd [28]: 5200 nM
SMILES: CNC(=S)C1(C(=O)c2ccc(-n3ccnc3)cc2)CCC1

IC50 [29]: 18 nM
SMILES: N#C/N=C(\Nc1cccnc1)NC1(c2cccc(Cl)c2)CCC1

IC50 (Cavia porcellus [12]): 2500 nM
SMILES: C[C@](O)(C(=O)Nc1cccc2c1C(=O)c1sccc1CS2(=O)=O)C(F)(F)F

EC50 (Rattus norvegicus [2]): 7500 nM
SMILES: CC(NC1=NS(=O)(=O)c2cccnc2N1)C(C)(C)C (stereo not drawn)
Insulin release (Rattus norvegicus [1]): 98.9%
